How the values were obtained:
[1] = orally ingested into human beings; cited from earlier work
[2] = Concentration of Erythromycin in the blood of rabbits; type: in vivo; conditions: rabbit, 1.5 hours after the oral ingestion of 40 mg per head, groups taking and not taking the adsorbent alike
Description: The symptom of diarrhea was manifested in 100% of the rabbits of the group not using the adsorbent and 0% of the rabbits of the group using the adsorbent. At this time, in the group of rabbits taking the adsorbent and the group of rabbits not taking the adsorbent alike, the concentration of Erythromycin in the blood measured 1.5 hours after the oral ingestion was invariably in the range of 0.12-0.13 μg/ml.

[3] = orally ingested to a rabbit; cited from earlier work
[4] = in human beings; cited from earlier work

**Q.** For `OCCOCCO` [Diethylene glycol], which “toxicity LD50” value [1] is on record?
**A.** The value was 1000 mg/kg.

**Q.** For `CC[C@H]1OC(=O)[C@H](C)[C@@H](O[C@H]2C[C@@](C)(OC)[C@@H](O)[C@H](C)O2)[C@H](C)[C@@H](O[C@@H]2O[C@H](C)C[C@H](N(C)C)[C@H]2O)[C@](C)(O)C[C@@H](C)C(=O)[C@H](C)[C@@H](O)[C@]1(C)O` [Erythromycin], which concentration at 1.5 h [2] is on record?
**A.** Its concentration at 1.5 h is 120 to 130 ng/mL.

**Q.** With `C[C@H]1CC[C@@H]2[C@@H](C)[C@H]3[C@H](C[C@H]4[C@@H]5CC=C6C[C@@H](O[C@@H]7O[C@H](CO)[C@H](O)[C@H](O[C@@H]8O[C@H](CO)[C@@H](O)[C@H](O)[C@H]8O)[C@H]7O[C@H]7O[C@@H](C)[C@H](O)[C@@H](O)[C@H]7O)CC[C@]6(C)[C@H]5CC[C@]34C)N2C1` [Solanine] as the compound, how does the LD50 [3] read?
**A.** Its LD50 is 450 mg/kg.

**Q.** And the concentration causing poisoning [4]?
**A.** Its concentration causing poisoning is 0.2 to 0.4 g.

Source: US20050101482A1, “Novel adsorbent” (priority 2001, published 2005)
